From ChEMBL document CHEMBL2412992, “Fluorescent ligands for adenosine receptors” (Bioorg Med Chem Lett, 2013)
pKi: −log10 of the molar value.

Biological target: Uncharacterized protein (Bos taurus, UniProt E1BKU0)
Assay: Displacement of [3H]CGS21680 from adenosine A2A receptor in bovine striatal membranes after 90 mins by liquid scintillation counting analysis
Type: cell membranes, Striatum, Membrane

Uncharacterized protein, sequence (E1BKU0 whole entry): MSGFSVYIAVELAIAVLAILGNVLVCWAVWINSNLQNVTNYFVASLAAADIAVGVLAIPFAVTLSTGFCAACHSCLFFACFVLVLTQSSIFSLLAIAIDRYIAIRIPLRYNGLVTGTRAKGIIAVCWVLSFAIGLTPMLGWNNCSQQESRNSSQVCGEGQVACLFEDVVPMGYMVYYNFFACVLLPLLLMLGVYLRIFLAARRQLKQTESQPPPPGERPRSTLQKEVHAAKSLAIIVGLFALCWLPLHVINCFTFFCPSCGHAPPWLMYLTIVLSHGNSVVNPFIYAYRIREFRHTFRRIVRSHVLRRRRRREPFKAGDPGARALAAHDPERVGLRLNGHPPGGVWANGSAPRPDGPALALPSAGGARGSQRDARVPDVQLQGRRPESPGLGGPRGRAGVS

pKi: 7.95
SMILES: CCNC(=O)[C@H]1O[C@@H](n2cnc3c(N)nc(NCCc4ccc(CCC(=O)NCCNC(=S)Nc5ccc(C6c7ccc(O)cc7OC7=CC(=O)C=CC76)c(C(=O)O)c5)cc4)nc32)[C@H](O)[C@@H]1O (stereo partly specified)
